Experimental data from patent publication EP4799701A2, “PYRIMID-2-YL-PYRAZOLE COMPOUNDS AS IRAK INHIBITORS” (Rigel Pharmaceuticals, Inc., priority 2022, dated 2023).
Several values for one entry are separate records, joined by “and”; a condition that tells them apart may be missing. Identical values can stand only once.

Experiments:
TLR4-induced IL-23 = assay: LPS induced IL23p19 in THP-1 cells (IFNγ primed), IL-23p19 sandwich ELISA; assay type: cell-based, human; details: human THP-1 cells; result in words
Text: LPS induced IL23p19 in THP-1 cells (with IFNy primed) Assay
THP-1 Cells (ATCC, Cat# TIB-202), Dimethyl Sulfoxide (DMSO) (Sigma-Aldrich, Cat# D2650), RPMI 1640 (Cellgro, Cat# 10-040-CM), Fetal Bovine Serum (Sigma, Cat# F4135), Albumin From Bovine Serum (BSA) (Sigma-Aldrich, Cat#A7906), LPS (Serotype K-235, Sigma, Product Number L 2143), IFNγ (Peprotech, Cat# 300-02), Capture antibody: Human IL-23p19 ELISA (e-Bioscience, Cat. # 14-7238-85), Detection antibody: Primary Mouse Biotinylated anti-human IL-12(p40/p70) (e-Bioscience, Cat. # 13-7129-85), Secondary HRP-conjugated Streptavidin (R&D Systems, Cat#DY998), 1x PBST Washing Buffer (PBS-Tween tablet) (VWR International, Cat#80058-558), ELISA Blocking Buffer (PBS with 1% BSA), ELISA Dilution Buffer (PBS with 1% BSA), 384 Well Flat-Bottom, MaxiSorp Black Immuno Plates (Thermo Scientific, Cat# 12-565-346), 384 Well Flat-Bottom, White Tissue Culture Plates (Thermo Scientific, Cat# 12-565-343), Super Signal ELISA Pico Chemiluminescent Substrate (Thermo Scientific, Cat#37070), Cell Titer Glo reagent (Promega, Cat#G7573), Positive control, IKK2VI inhibitor (Calbiochem, Cat#401483), AquaMax 4000 plate washer (Molecular Devices), Luminometer, Wallac Victor2 1420 Multilabel Counter.
On day 1, 50K/well THP-1 cells were seeded and primed with IFNγ (50ng/mL) in 384-well plates for about 18 hours in RPMI media with 10%FBS. On day 2, the compound was serially diluted in DMSO from 5 mM in 3-fold dilutions, and then diluted 1:125 in RPMI media with 10%FBS. […] IL-23p19 protein in 70 µL/well of supernatant was measured by sandwich ELISA, and 25 µl/well Cell Titer Glo reagent was added to the remaining cells to measure compound toxicity.
Maxisorp immuno ELISA plates were pre-coated with 25 µL/well of anti-IL-23p19 capture antibody (2.5ug/mL) in PBS overnight at room temperature. […] The plates were read with a luminometer, and the chemiluminescence values were entered into Athena (Rigel) for curve fitting, EC50 calculation, and database storage. […]

TLR7-induced TNF-α = assay: TNF-α in human monocyte-derived dendritic cells (gardiquimod); assay type: cell-based; details: human primary dendritic cells (DC); result in words
Procedure: After 2 hours, the media including floating cells was carefully removed and 12 ml of fresh RPMI media (10% FBS) containing GM-CSF (100 ng/ml) and IL-4 (20 ng/ml) were added to the adherent monocytes.
The differentiated dendritic cells (DC) were harvested by centrifugation (1200 rpm/5 min).

[1] = Rat brain homogenate binding, equilibrium dialysis (RED); assay type: in vitro ADME
Procedure: Brain and plasma drug binding were performed by equilibrium dialysis using the Rapid Equilibrium Dialysis (RED) device. Briefly, 300 µL of plasma or brain homogenate (1 brain /3 buffer) containing drug (5 µM) was equilibrated (4-18 h) against 500 µL of buffered saline. After incubation, the concentration of drug in plasma/brain homogenate and buffer was determined by LC-MS/MS.
Two runs of rat brain homogenate binding with I-1 compared to Comparison-1. I-1 is approximately 10-fold more free in rat brain than Comparison-1.

CCO[C@H]1CC[C@H](n2cc(NC(=O)c3csc(-c4cn[nH]c4)n3)c(-c3ncccn3)n2)CC1 [Compound I-1, N-(1-((1r,4r)-4-ethoxycyclohexyl)-3-(pyrimidin-2-yl)-1H-pyrazol-4-yl)-2-(1H-pyrazol-4-yl)thiazole-4-carboxamide]
TLR4-induced IL-23 production (TLR4-induced IL-23): inhibits | TLR7- induced TNF-α production (TLR7-induced TNF-α): blocks | more free in rat brain than Comparison-1 ([1]; rat brain homogenate): approximately 10 fold | rat brain homogenate binding (free drug) ([1]; two runs, brain homogenate 1 brain /3 buffer, drug 5 µM, 5 µM): 1.06% and 1.43%
